Data published in patent publication US11104632B1, “Metabolically stable vanillin derivatives for the treatment of hypoxia” (King Abdulaziz University, priority 2020, dated 2021).

What was measured:
[1] = tested on: intact SS cells; test: Antisickling study (RBC morphology) under hypoxia with homozygous SS blood; format: cell-based, human; conditions: SS blood hematocrit 20%, 2.5% oxygen, 37° C., 2 hr
Procedure: (§1) In vitro Hemoglobin Modification, Oxygen Equilibrium and Antisickling Studies Using Human homozygous Sickle cell (SS) Blood
(§2) Materials and General Procedure: Leftover blood samples from patients with homozygous SS were obtained and utilized, based on an approved IRB protocol at the Children's Hospital of Philadelphia, with informed consent.
(§3) Following, the suspensions were incubated under hypoxic condition (2.5% oxygen) at 37° C. for 2 hr. Aliquot samples were fixed with 2% glutaraldehyde solution without exposure to air, and then subjected to microscopic morphological analysis. The residual samples were washed in phosphate-buffered saline, and hemolyzed in hypotonic lysis buffer for the Hb oxygen equilibrium and Hb adduct experiments. […] Another aliquot from the lysate was also subjected to Hb adduct formation study using cation-exchange HPLC (Hitachi D-7000 Series, Hitachi Instruments, Inc., San Jose, Calif.) with a weak cation-exchange column (Poly CAT A: 30 mm×4.6 mm, Poly LC, Inc., Columbia, Md.). To determine the binding of the MMA compounds to either α- or β-globin chains, the hemolysates were subjected to reversed-phase (RP) HPLC on a Hitachi D-7000 HSM Series, using a Jupiter 5 μm C-4 50×4.6 mm column, (Phenomenex®, Torrence, Calif.) and a gradient from 20% to 60% acetonitrile in 0.3% trifluoroacetic acid in 15 minutes, with UV detection at 215 nm.

[2] = biological target: T1, Hb (Homo sapiens, UniProt P68871+P69905, E7V); test: Hb oxygen equilibrium study (P50 shift, Hemox Analyzer) on lysate of treated SS cells; format: cell-based; conditions: intact SS cells, read-out: increase in Hb oxygen affinity (ΔP50); for percent P50 decrease (increase in Hb oxygen affinity) at 2000 µM: 2 mM compound; for percent P50 decrease (increase in Hb oxygen affinity) at 5000 µM: 5 mM compound
T1 construct: Leftover blood samples from patients with homozygous SS were obtained and utilized; from tissue; host or cells: blood (red blood cells) of patients with homozygous SS
Text: as §1, §2
as §3, with “Experimental Procedure: The MMA series of compounds (MMA-202, MMA-204, and MMA-405) and the positive control vanillin were studied for their abilities to inhibit hypoxia-induced RBC sickling (RBC morphology study), increase Hb oxygen, and/or modify Hb (adduct formation) as previously published.^31,33 Briefly, homozygous SS blood (hematocrit: 20%) suspensions were incubated under air in the absence or presence of 2 and/or 5 mM concentration of test compounds at 37° C. for 1 hr. Following,” for “Following,”

[3] = biological target: T2, α- or β-globin chains (Homo sapiens, UniProt P68871+P69905, E7V); test: Reversed-phase HPLC of hemolysates for binding to α- or β-globin chains; format: cell-based; conditions: reverse-phase HPLC; 2 mM and/or 5 mM; intact SS cells
T2 construct: Leftover blood samples from patients with homozygous SS were obtained and utilized; from tissue; host or cells: blood (red blood cells) of patients with homozygous SS
Procedure: as §3, with “Experimental Procedure: The MMA series of compounds (MMA-202, MMA-204, and MMA-405) and the positive control vanillin were studied for their abilities to inhibit hypoxia-induced RBC sickling (RBC morphology study), increase Hb oxygen, and/or modify Hb (adduct formation) as previously published.^31,33 Briefly, homozygous SS blood (hematocrit: 20%) suspensions were incubated under air in the absence or presence of 2 and/or 5 mM concentration of test compounds at 37° C. for 1 hr. Following,” for “Following,”

[4] = biological target: Hb (Homo sapiens, UniProt P68871+P69905); test: In vitro time-dependent Hb oxygen equilibrium study using normal whole blood; conditions: 2 mM; normal whole blood 30% hct; 37° C.; 1, 4 and 24 hr
[5] = biological target: T1, Hb; test: Hb adduct formation study by cation-exchange HPLC after incubation with intact SS cells; format: cell-based; conditions: 2 mM and/or 5 mM
Procedure: Experimental Procedure: The MMA series of compounds (MMA-202, MMA-204, and MMA-405) and the positive control vanillin were studied for their abilities to inhibit hypoxia-induced RBC sickling (RBC morphology study), increase Hb oxygen, and/or modify Hb (adduct formation) as previously published.^31,33 Briefly, homozygous SS blood (hematocrit: 20%) suspensions were incubated under air in the absence or presence of 2 and/or 5 mM concentration of test compounds at 37° C. for 1 hr. Following, the suspensions were incubated under hypoxic condition (2.5% oxygen) at 37° C. for 2 hr. Aliquot samples were fixed with 2% glutaraldehyde solution without exposure to air, and then subjected to microscopic morphological analysis. The residual samples were washed in phosphate-buffered saline, and hemolyzed in hypotonic lysis buffer for the Hb oxygen equilibrium and Hb adduct experiments. […] Another aliquot from the lysate was also subjected to Hb adduct formation study using cation-exchange HPLC (Hitachi D-7000 Series, Hitachi Instruments, Inc., San Jose, Calif.) with a weak cation-exchange column (Poly CAT A: 30 mm×4.6 mm, Poly LC, Inc., Columbia, Md.). […]

[6] = in-vivo; aldehyde protected by L-cysteine; cited from earlier work

## C=CC(=O)c1ccc(OC)cc1 [MMA-202, 1-(4-methoxyphenyl)prop-2-en-1-one]
[1]; 1 mM compound
  RBC sickling: 48%
[1]; 2 mM compound
  RBC sickling: 28%
[1]; 5 mM compound
  RBC sickling: 15%
[2]
  percent P50 decrease (increase in Hb oxygen affinity) at 2000 µM: 13%
  percent P50 decrease (increase in Hb oxygen affinity) at 5000 µM: 51%
[3]
  globin chain bound: bind to both the α-chain and β-chain
[4]
  time course of Hb oxygen affinity activity (% P50 shift) over 24 hr: sustained throughout the 24 hr experiment
[5]
  Hb modification (adduct formation): significant Hb modification

## COc1cc(C=O)ccc1O [vanillin]
[1]; 2 mM compound
  RBC sickling: 57%
[1]; 5 mM compound
  RBC sickling: 36%
[2]
  percent P50 decrease (increase in Hb oxygen affinity) at 2000 µM: 12%
  percent P50 decrease (increase in Hb oxygen affinity) at 5000 µM: 27%

## COc1ccc(C(=O)C(N)=O)cc1 [MMA-203, 2-(4-methoxyphenyl)-2-oxoacetamide]
other
  melting point: 146 °C

## COc1cc(C2NC(C(=O)O)CS2)ccc1O (centres unmarked) [thiazolidine complex of Vanillin]
[6]
  extension of Vanillin half-life: 2 fold

## COC(=O)C(=O)c1ccc(OC)cc1 [MMA-201, methyl 2-(4-methoxyphenyl)-2-oxoacetate]
other
  melting point: 49 °C

## C=CC(=O)c1ccc(OC2CCCCO2)cc1 (centres unmarked) [MMA-205, 1-(4-((tetrahydro-2H-pyran-2-yl)oxy)phenyl)prop-2-en-1-one]
[1]; 2 mM compound
  RBC sickling: 46%
[1]; 5 mM compound
  RBC sickling: 27%
[2]
  percent P50 decrease (increase in Hb oxygen affinity) at 2000 µM: 21%
  percent P50 decrease (increase in Hb oxygen affinity) at 5000 µM: 39%
[3]
  globin chain bound: bind exclusively with the β-chain
[5]
  Hb modification (adduct formation): significant Hb modification

## C#CC(=O)c1ccc(OC)cc1 [MMA-204, 1-(4-methoxyphenyl)prop-2-yn-1-one]
[1]; 2 mM compound
  RBC sickling: 57%
[1]; 5 mM compound
  RBC sickling: 44%
[2]
  percent P50 decrease (increase in Hb oxygen affinity) at 2000 µM: 29%
  percent P50 decrease (increase in Hb oxygen affinity) at 5000 µM: 62%
[3]
  globin chain bound: bind exclusively with the β-chain
